Eleven molecules from ChEMBL document CHEMBL1201862, “PubChem BioAssay data set” (2004) can be followed below.

Each structure is given as a SMILES string.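 Interpolation was linear, between the two tested concentrations surrounding the appropriate level; five concentrations were tested over 48 hours in 96-well plates. At the GI50, growth is halved.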 The source made the active and inactive calls. Rule as the data show it: active = GI50 up to about 1.1 µM and inactive = higher.

Test systems include SK-OV-3; SR; T47D; SF-268; OVCAR-4; NCI-H460; UACC-62; SNB-75; UO-31; DU-145; M14; ACHN; HCT-15; RPMI-8226; KM12; COLO 205; A498; SNB-19; PC-3; HL-60.
Experiment in all cases: DTP human tumour cell line panel, 48 h

On to `CC(C)(C)c1ccc(O)c(CN(Cc2c(O)ccc3ccccc23)C2CCCCC2)c1`, for which the GI50 – broadly, the concentration at which growth is held to half of that of the control – in the experiment on SK-OV-3 was 24.9 µM (inactive); in the experiment on SR, 16 µM (inactive); in the experiment with T47D, 17.9 µM (inactive); in the experiment with SF-268, 16.1 µM (inactive); with OVCAR-4, 20.7 µM (inactive); in the experiment on NCI-H460 it was 15.8 µM (inactive). In addition, the GI50 with UACC-62 is 15.6 µM (inactive); in the experiment with SNB-75, 16 µM (inactive); with UO-31, 14.7 µM (inactive); with DU-145, 23.8 µM (inactive); in the experiment on M14 it was 12.6 µM (inactive); in the experiment with ACHN it was 18.5 µM (inactive). Moreover, the GI50 in the experiment with HCT-15 was 16.4 µM; with RPMI-8226 it was 26.6 µM (inactive); in the experiment on KM12 it was 17.6 µM (inactive); in the experiment on COLO 205, 15.7 µM (inactive); in the experiment on A498 it was 19.5 µM (inactive); in the experiment on SNB-19, 18.5 µM (inactive). In the experiment with PC-3, the GI50 was 14.5 µM (inactive).

With `CC1=C(C)CC2C(=O)N(c3cc(C(C)(C)C)ccc3C(C)(C)C)C(=O)C2C1` (stereo not drawn), the GI50 in the experiment with SK-OV-3 is 58.3 µM (inactive); in the experiment with SR, > 100 µM (inactive); in the experiment on T47D, > 100 µM (inactive); with SF-268, 7.91 µM (inactive); with OVCAR-4 it was > 100 µM (inactive); in the experiment on NCI-H460, > 100 µM (inactive). In addition, the GI50 in the experiment with UACC-62 was 14.5 µM (inactive); in the experiment with SNB-75 it was 22.3 µM (inactive); with UO-31, > 100 µM (inactive); in the experiment with DU-145, > 100 µM (inactive); in the experiment with M14 it was 52.1 µM (inactive); with ACHN, 5.38 µM (inactive). The GI50 in the experiment with HL-60 was > 100 µM (inactive); in the experiment with HCT-15, more than 100 µM; with RPMI-8226, > 100 µM (inactive); with KM12 it was > 100 µM (inactive); with COLO 205, > 100 µM (inactive); in the experiment on SNB-19, 23.1 µM (inactive). Also, the GI50 with PC-3 is 62.2 µM (inactive).

Take `CCOC(=O)Nn1c(CC#N)nnc1Cc1ccccc1`: the GI50 with SR was > 100 µM (inactive); in the experiment on T47D, 84.9 µM (inactive); with SF-268, > 100 µM (inactive); in the experiment on NCI-H460, > 100 µM (inactive); with UACC-62 it was > 100 µM (inactive); with SNB-75, > 100 µM (inactive). The GI50 in the experiment on UO-31 is > 100 µM (inactive); with DU-145, > 100 µM (inactive); in the experiment with M14, > 100 µM (inactive); in the experiment on ACHN it was > 100 µM (inactive); with HL-60, > 100 µM (inactive); in the experiment on HCT-15, more than 100 µM. The GI50 in the experiment on RPMI-8226, with KM12, in the experiment on SNB-19 and in the experiment with PC-3 was > 100 µM (inactive) each time.

As for `Cc1ccc(-c2nc(N/N=C/c3ccc(O)cc3)c3ccccc3n2)cc1`, the GI50 with SK-OV-3 was 20.3 µM (inactive); in the experiment with SR, 39.4 µM (inactive); with T47D, 5.22 µM (inactive); in the experiment with SF-268, 18.8 µM (inactive); with OVCAR-4, 1.55 µM (inactive); in the experiment with NCI-H460, 9.91 µM (inactive). Moreover, the GI50 is 12.3 µM (inactive) in the experiment on UACC-62; 16.8 µM (inactive) in the experiment with SNB-75; 5.47 µM (inactive) in the experiment with UO-31; 21.8 µM (inactive) with DU-145; 5.02 µM (inactive) in the experiment on M14; 7.21 µM (inactive) with ACHN. Also, the GI50 in the experiment with HL-60 is 17.2 µM (inactive); with HCT-15 it was 16.4 µM; in the experiment on RPMI-8226, 40.7 µM (inactive); in the experiment on KM12, 13.5 µM (inactive); in the experiment with COLO 205, 23.4 µM (inactive); with SNB-19, 26.6 µM (inactive). In the experiment on PC-3, the GI50 is 9.06 µM (inactive).

For the molecule `CC1(C)CC(=O)c2[nH]c3ccccc3c2CC(=O)NCCc2cn1cn2`, the GI50 in the experiment with SK-OV-3, in the experiment on SR, in the experiment with T47D, in the experiment with SF-268, in the experiment with OVCAR-4 and in the experiment with NCI-H460 was > 100 µM (inactive) in each case. Besides, the GI50 is > 100 µM (inactive) in the experiment on UACC-62; > 100 µM (inactive) in the experiment on SNB-75; > 100 µM (inactive) in the experiment with UO-31; > 100 µM (inactive) with DU-145; > 100 µM (inactive) with M14; 61.1 µM (inactive) in the experiment with ACHN. Also, the GI50 was more than 100 µM in the experiment with HCT-15; > 100 µM (inactive) in the experiment on KM12; > 100 µM (inactive) with COLO 205; > 100 µM (inactive) in the experiment on A498; 28 µM (inactive) in the experiment with SNB-19; > 100 µM (inactive) in the experiment with PC-3.

`CCN(CC)C1Oc2cc3c(cc2C(c2ccc(OC)cc2)C1C)OCO3` (stereo not drawn): the GI50 in the experiment on SK-OV-3 is 40.2 µM (inactive); in the experiment with SR it was 12.5 µM (inactive); with T47D it was 26.9 µM (inactive); in the experiment with SF-268 it was 17.3 µM (inactive); in the experiment on NCI-H460, 17.1 µM (inactive); in the experiment on UACC-62 it was 19.1 µM (inactive). Also, the GI50 is 20.3 µM (inactive) in the experiment with SNB-75; 19.7 µM (inactive) with UO-31; 25.6 µM (inactive) in the experiment with DU-145; 21.2 µM (inactive) in the experiment on M14; 22.5 µM (inactive) in the experiment with ACHN; 18.9 µM with HCT-15. For the same molecule, the GI50 with RPMI-8226 was 17 µM (inactive); with KM12 it was 20 µM (inactive); in the experiment on COLO 205 it was 17.6 µM (inactive); in the experiment on A498, 19.7 µM (inactive); in the experiment with SNB-19, 26.9 µM (inactive); in the experiment with PC-3, 23.8 µM (inactive).

With `CC1(C)C[C@H](O)[C@H](O)[C@]23C(=O)O[C@H](O)[C@H]2C(C=O)=CC[C@@H]13`, the GI50 was > 100 µM (inactive) in the experiment on SR; 73.1 µM (inactive) in the experiment with T47D; > 100 µM (inactive) with SF-268; > 100 µM (inactive) in the experiment with NCI-H460; 58.9 µM (inactive) with UACC-62; > 100 µM (inactive) in the experiment on SNB-75. In addition, the GI50 in the experiment with UO-31 was > 100 µM (inactive); in the experiment with DU-145 it was > 100 µM (inactive); with ACHN, > 100 µM (inactive); with HL-60, > 100 µM (inactive); in the experiment on HCT-15 it was more than 100 µM; in the experiment with RPMI-8226 it was > 100 µM (inactive). The GI50 with KM12, in the experiment with COLO 205, in the experiment on SNB-19 and in the experiment on PC-3 was > 100 µM (inactive) in each case.

As to `COC(=O)c1ccc(/C=N/c2cc(C)nn2-c2ccccc2)cc1`, the GI50 is 34.4 µM (inactive) with SK-OV-3; 19.2 µM (inactive) in the experiment on SR; 16.4 µM (inactive) in the experiment on T47D; 57.1 µM (inactive) in the experiment on SF-268; 38.6 µM (inactive) in the experiment with OVCAR-4; 10.6 µM (inactive) with NCI-H460. Besides, the GI50 in the experiment with UACC-62 was 65.8 µM (inactive); in the experiment with SNB-75, 21.1 µM (inactive); with UO-31, > 100 µM (inactive); in the experiment with DU-145 it was 41 µM (inactive); in the experiment with M14 it was 22.5 µM (inactive); in the experiment with ACHN it was > 100 µM (inactive). For the same molecule, the GI50 in the experiment with HL-60 was 20.1 µM (inactive); in the experiment with HCT-15, 13.7 µM; in the experiment with RPMI-8226, 20.4 µM (inactive); with KM12 it was 24.2 µM (inactive); with COLO 205, 13.5 µM (inactive); in the experiment on SNB-19 it was 33.5 µM (inactive). Also, the GI50 in the experiment with PC-3 is 40.9 µM (inactive).

Regarding `O=S(=O)(c1ccccc1)n1c2ccc(Br)cc2c2nc3ccccc3nc21`, the GI50 with SR, with T47D, with SF-268, in the experiment with OVCAR-4, with NCI-H460 and with UACC-62 was > 100 µM (inactive) in each case. The GI50 was > 100 µM (inactive) in the experiment with SNB-75; > 100 µM (inactive) in the experiment with UO-31; > 100 µM (inactive) in the experiment with DU-145; > 100 µM (inactive) with M14; > 100 µM (inactive) in the experiment with ACHN; more than 100 µM with HCT-15. For the same molecule, the GI50 in the experiment with RPMI-8226, in the experiment with KM12, in the experiment on COLO 205, in the experiment with A498, in the experiment on SNB-19 and in the experiment on PC-3 was > 100 µM (inactive) each time.

For the molecule `CN(CCN(C)C(=S)NN)C(=S)NN`, the GI50 with SK-OV-3, with SR, in the experiment on T47D, with SF-268, with OVCAR-4 and with NCI-H460 was > 100 µM (inactive) each time. Moreover, the GI50 in the experiment on UACC-62, in the experiment with SNB-75, with UO-31, in the experiment on DU-145, in the experiment on M14 and with ACHN was > 100 µM (inactive) throughout. Moreover, the GI50 with HL-60, with RPMI-8226, with KM12, in the experiment with COLO 205, in the experiment with SNB-19 and in the experiment on PC-3 was > 100 µM (inactive) throughout.

Take `O=C(/C=C/c1ccc(O)c(O)c1)OCCOC(=O)/C=C/c1ccc(O)c(O)c1`: the GI50 with SK-OV-3 is 24.2 µM (inactive); in the experiment with SR, 22.6 µM (inactive); in the experiment with T47D, 24.7 µM (inactive); in the experiment on SF-268, 27.7 µM (inactive); with OVCAR-4 it was 39.1 µM (inactive); in the experiment on NCI-H460, 37.2 µM (inactive). For the same molecule, the GI50 with UACC-62 was 18.7 µM (inactive); with UO-31 it was 23.2 µM (inactive); in the experiment on DU-145, 24.7 µM (inactive); in the experiment on M14, 14.7 µM (inactive); in the experiment on ACHN, 31.3 µM (inactive); with HCT-15 it was 35.1 µM. Also, the GI50 in the experiment on RPMI-8226 was 36.2 µM (inactive); in the experiment with KM12, 17.6 µM (inactive); with COLO 205, 19.5 µM (inactive); in the experiment on A498 it was 39.5 µM (inactive); in the experiment on SNB-19, 40.3 µM (inactive); in the experiment with PC-3 it was 32 µM (inactive).
